This is an account of results in article PMC9037180, “Ligand-based design and synthesis of N'-Benzylidene-3,4-dimethoxybenzohydrazide derivatives as potential antimicrobial agents; evaluation by in vitro, in vivo, and in silico approaches with SAR studies” (Journal of Enzyme Inhibition and Medicinal Chemistry, 2022).

Values after ≈ are worked out from the molar mass of the structure shown.

Data set [1] is described as follows: Cytotoxicity on cells using MTT assay. It counts as cell-based. To be noted: African green monkey, Vero cells (normal mammalian cell line). As for the experimental part:
The newly synthesised compounds were looked deeply into their efficacy using in silico, in vitro, and in vivo approaches. On the other hand, the cytotoxicity assay was performed for the tested compounds using a normal mammalian Vero cell line by the MTT assay[31]^,[32].
Moreover, the cytotoxicity values of the target compounds were determined to calculate their corresponding IC50 values through the MTT assay. The IC50 value indicates the compound’s concentration that is required to inhibit 50% of the target cells.
The MTT (3–(4,5-dimethylthiazol-2-yl)-2,5-diphenyltetrazolium bromide) tetrazolium reduction assay protocol was applied to determine the cytotoxicity of the target compounds (4a–j) on cells.
Background: Formazan colour is commonly taken as a measure of viable cells.

The subject of a further data set is A. baumanii. Nature of the data set: Minimal bactericidal concentration (MBC). It counts as cell-based. The conditions noted are these: Acinetobacter baumannii. On the procedure:
(§1) After determining the MIC for the target compounds, the minimal bactericidal concentration (MBC) for each compound that is required to kill each one of the above-mentioned microorganisms was assessed.

Another data set has as its system C. albicans. Nature of the data set: Minimal bactericidal concentration (MBC). It is filed as cell-based. The conditions noted are these: Candida albicans. On the procedure: as §1
For data set [2], the system named is S. aureus. Put plainly: Biochemical analysis in S. aureus-infected rats. It is filed as in vivo. To be noted: first and second dose (1.9 and 3.8 mg/kg IP daily for one week). On the procedure:
The compounds 4h and 4j were dissolved in DMSO (dimethyl sulfoxide) then further dilutions were made by using sterile distilled water. The doses of both candidates were calculated according to the method given by Paget and Barnes[60]. Sterile distilled water, DEMSO, and investigated compounds (4h (1.9 and 3.8 mg/kg) and 4j (1.9 and 3.8 mg/kg)) were injected in a volume of 4 ml/kg[61]. The experiment lasts two weeks, the 1st week for induction of infection in the infected groups and the 2nd week for the administration of the compounds in all groups. […]
ALT and AST were determined[66] using commercial kits obtained from Diamond Diagnostics, Egypt.
Serum urea was determined by using the modified Berthelot–Searcy method. Serum creatinine activity was also assessed by using the application of Jaffe’s reaction.
Serum levels of the pro-inflammatory cytokine, TNF-α, were determined by the quantitative enzyme immunoassay (EIA) kit purchased from R&D Systems (USA) according to the method of Howard and Harada[69], while that of anti-inflammatory cytokine IL-10 was according to Croft et al.. […]

In data set [3] the test system is S. aureus. Put plainly: H&E histological examination of liver and kidney, S. aureus infected rats. It counts as in vivo. As for the experimental part: Rats were divided randomly into equal fifteen groups, each containing 9 rats as follows: • Group 1: Rats were kept on standard laboratory chow and water ad libitum to serve as a control. • Group 2: Rats have injected IP with sterile distilled water (4ml/kg) daily for one week to serve as a control. • Group 3: Rats have injected IP with DEMSO (dimethyl sulfoxide) (4 ml/kg) daily for one week to serve as a control. • Group 4: Rats have injected IP with 4h (1.9 mg/kg) daily for one week. • Group 5: Rats have injected IP with 4h (3.8 mg/kg) daily for one week. • Group 6: Rats have injected IP with 4i (1.9 mg/kg) daily for one week. • Group 7: Rats have injected IP with 4i (3.8 mg/kg) daily for one week. • Group 8: Rats were infected by a single IM injection of S. aureus strain [1.0 ml) 1 × 10^7) colony-forming units]. • Group 9: Rats have injected IP with 4h (1.9 mg/kg) daily for one week on the 7th day after induction of infection by a single IM injection of S. aureus strain [1.0 ml (1 × 10^7) colony-forming units. • Group 10: Rats have injected IP with 4h (3.8 mg/kg) daily for one week on the 7th day after induction of infection by a single IM injection of S. aureus strain [1.0 ml (1 × 10^7) colony-forming units]. • Group 11: Rats were infected by a single IM injection of S. typhi strain [1.0 ml (1 × 10^7) colony forming units). • Group 12: Rats have injected IP with 4h (1.9 mg/kg) daily for one week. on the 7th day after induction of infection by a single IM injection of S. typhi strain [1.0 ml (1 × 10^7) colony-forming units]. • Group 13: Rats have injected IP with 4h (3.8 mg/kg) daily for one week on the 7th day after infection by a single IM injection of S. typhi strain [1.0 ml (1 × 10^7) colony-forming units]. • Group 14: Rats have injected IP with 4i (1.9 mg/kg) daily for one week. on the 7th day after induction of infection by a single IM injection of S. typhi strain [1.0 ml (1 × 10^7) colony-forming units]. • Group 15: Rats have injected IP with 4i (3.8 mg/kg) daily for one week. on the 7th day after induction of infection by a single IM injection of Salmonella strain [1.0 ml (1 × 10^7) colony-forming units].
At the end of the experiment, the animals were euthanized through cervical dislocation. After that, the liver and kidney were dissected for histological study. The procedure for histological preparations was described by Bancroft and Stevens[73]. Briefly, liver and kidney tissues were sliced to 3–4 mm thick, fixed in 10% neutral buffered formalin (10% NBF), dehydrated in graded concentrations of ethanol, cleared in xylene, and embedded in paraffin. The paraffin blocks were sectioned with a microtome at (4–6 μm) thickness and dyed with H & E stain to study the general tissue structure.

In general, IC50 refers to the point on the concentration scale where inhibition reaches its midpoint. In the case of `COc1ccc(C(=O)NN=Cc2ccc3ccccc3n2)cc1OC` [Compound 4i, N'-(quinolin-2-ylmethylene)-3,4-dimethoxybenzohydrazide], the concentration for half-maximal inhibition (IC50) in data set [1] was 305 µM. Also, the MBC against A. baumanii and with C. albicans was 186 µM (≈ 62.5 µg/mL) in each case.
Take “N'-((3a,7a-dihydro-1H-indol-3-yl)methylene)-3,4-dimethoxybenzohydrazide [Compound 4h]”: the “renal and liver functions, oxidative stress and inflammatory markers (urea, creatinine, ALT, AST, GSH, MDA, TNF-α, IL-10)” value in the data set on S. aureus [2] was “significant improvement in all the measured parameters”. In addition, in the data set on S. aureus [3] (high dose (3.8 mg/kg)), the “kidney pathological changes (H&E)” value is given as “marked improved renal tissue” and the “liver pathological changes (H&E)” value was “marked improvement in the pathological changes”. Further, in the data set with S. aureus [3] (low dose (1.9 mg/kg)), the “kidney pathological changes (H&E)” value is “improved pathological changes” and the “liver pathological changes (H&E)” value is given as “improved pathological changes”.
